The record followed here is patent US20220073536A1 (Rigel Pharmaceuticals, Inc., priority 2003, published 2022).

This experiment relates to cultured human mast cells (CHMC). As to the kind of experiment: CHMC low cell density IgE activation: tryptase assay. The experiment is classed as cell-based. As to conditions: low cell density CHMC, IgE activation. In short, it runs like this:
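Anti-IgE-driven degranulation of cultured human mast cells at low density, 1000–1500 cells/well, was induced over 30 min at 37 °C. It was scored by supernatant tryptase activity on a fluorogenic substrate.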

Where [1] appears, read: tryptase release, 3 point, read-out: LD Tryptase, CHMC, IgE, 3 pt.
Setting [2] is: tryptase release, 8 point, read-out: LD Tryptase, CHMC, IgE, 8 pt.
Where [3] appears, read: Homo sapiens, Mast cell, tryptase, 3 pt, read-out: LD Tryptase, CHMC, IgE, 3 pt.
Where [4] appears, read: tryptase, 3 pt, read-out: LD Tryptase, CHMC, IgE, 3 pt.
The mark [5] stands for this setting: tryptase, 8 pt, read-out: LD Tryptase, CHMC, IgE, 8 pt.

pIC50: −log10 of the molar value. Counter-ions that a name gives are not always drawn. Like-named read-outs stand apart in the source and are kept apart here. A value given as a limit tells only on which side of the number the result lay.

As to `CNC(=O)COc1c(C)cc(Nc2ncc(F)c(Nc3ccc4c(c3)OCCO4)n2)cc1C` [Compound 572, N2-[3,5-dimethyl-4-(N-methylamino)carbonylmethyleneoxyphenyl]-N4-(3,4-ethylenedioxyphenyl)-5-fluoro-2,4-pyrimidinediamine], the pIC50 runs as follows: under setting [1], more than 5.00; under setting [2], more than 5.00.

Turning to `CNC(=O)COc1c(C)cc(Nc2ncc(F)c(Nc3cc(OC)cc(OC)c3)n2)cc1C` [Compound 573, N4-(3,5-Dimethoxyphenyl)-N2-[3,5-dimethyl-4-(N-methylamino)carbonylmethyleneoxyphenyl]-5-fluoro-2,4-pyrimidinediamine], the pIC50 under setting [1] was more than 5.00 and the pIC50 under setting [2] was more than 5.00.

In the case of `CNC(=O)COc1c(C)cc(Nc2ncc(F)c(Nc3ccc4c(c3)NC(=O)C(C)(C)O4)n2)cc1C` [Compound 574, N2-[3,5-dimethyl-4-(N-methylamino)carbonylmethyleneoxyphenyl]-N4-(2,2-dimethyl-3-oxo-4H-benz[1,4]oxazin-6-yl)-5-fluoro-2,4-pyrimidinediamine], the pIC50 under setting [1] was more than 5.00 and the pIC50 under setting [2] was more than 5.00.

Regarding `CNC(=O)COc1c(C)cc(Nc2ncc(F)c(Nc3ccc4c(c3)OCO4)n2)cc1C` [Compound 575, N2-[3,5-dimethyl-4-(N-methylamino)carbonylmethyleneoxyphenyl]-5-fluoro-N4-(3,4-methylenedioxyphenyl)-2,4-pyrimidinediamine], the pIC50 under setting [1] is more than 5.00 and the pIC50 under setting [2] is more than 5.00.

As for `CNC(=O)Cn1ccc2cc(Nc3ncc(F)c(Nc4ccc(OCCO)nc4)n3)ccc21` [Compound 650, 5-Fluoro-N4-[2-(2-hydroxyethyleneoxy)pyrid-5-yl]-N2-[1-(N-methylamino)carbonylmethyleneindol-5-yl]-2,4-pyrimidinediamine], the pIC50 under setting [2] is more than 5.00.

With `CNC(=O)Cn1ccc2cc(Nc3ncc(F)c(Nc4ccc(OC(F)(F)F)c(Cl)c4)n3)ccc21` [Compound 651, N4-(3-Chloro-4-trifluoromethoxyphenyl)-5-fluoro-N2-[1-(N-methylamino)carbonylmethyleneindol-5-yl]-2,4-pyrimidinediamine], the pIC50 under setting [2] was more than 5.00.

For `CNC(=O)Cn1ccc2cc(Nc3ncc(F)c(Nc4ccc(Cl)c(OC)c4)n3)ccc21` [Compound 653, N4-(4-Chloro-3-methoxyphenyl)-5-fluoro-N2-[1-(N-methylamino)carbonylmethyleneindol-5-yl]-2,4-pyrimidinediamine], the pIC50 under setting [2] is more than 5.00.

Turning to `CNC(=O)Cn1ccc2cc(Nc3ncc(F)c(Nc4ccc(OC)c(Cl)c4)n3)ccc21` [Compound 654, N4-(3-Chloro-4-methoxyphenyl)-5-fluoro-N2-[1-(N-methylamino)carbonylmethyleneindol-5-yl]-2,4-pyrimidinediamine], the pIC50 under setting [2] was more than 5.00.

As to `CNC(=O)Cn1ccc2cc(Nc3ncc(F)c(Nc4ccc5c(c4)OCCO5)n3)ccc21` [Compound 655, N4-(3,4-Ethylenedioxyphenyl)-5-fluoro-N2-[1-(N-methylamino)carbonylmethyleneindol-5-yl]-2,4-pyrimidinediamine], the pIC50 under setting [2] was more than 5.00.

As for `CNC(=O)Cn1ccc2cc(Nc3ncc(F)c(Nc4ccc(C(=O)NC)c(Cl)c4)n3)ccc21` [Compound 656, N4-[3-Chloro-4-(N-methylamino)carbonylphenyl]-5-fluoro-N2-[1-(N-methylamino)carbonylmethyleneindol-5-yl]-2,4-pyrimidinediamine], the pIC50 under setting [2] was more than 5.00.

Regarding `COc1cc(Nc2nc(Nc3cccc(-c4ncco4)c3)ncc2F)cc(OC)c1OC` [Compound 667], the pIC50 (Homo sapiens, Mast cell, tryptase release, 3 point, read-out: LD Tryptase, CHMC, IgE, 3 pt) was more than 5.00.

On to `COc1ccc(Nc2ncc(F)c(Nc3ccc4c(c3)OCCO4)n2)c(OC)c1OC` [Compound 668, N4-(3,4-Ethylenedioxyphenyl)-5-fluoro-N2-(2,3,4-trimethoxyphenyl)-2,4-pyrimidinediamine], for which the pIC50 under setting [3] was more than 5.00.

Regarding `COc1ccc(Nc2nc(Nc3ccc(OC)c(OC)c3OC)ncc2F)cc1Cl` [Compound 669, N4-(3-Chloro-4-methoxyphenyl)-5-fluoro-N2-(2,3,4-trimethoxyphenyl)-2,4-pyrimidinediamine], the pIC50 under setting [3] was less than 5.00.

Consider `COc1cc(Nc2nc(Nc3ccc(OC)c(OC)c3OC)ncc2F)ccc1Cl` [Compound 670], for which the pIC50 under setting [3] is less than 5.00.

As to `COc1ccc(Nc2ncc(F)c(Nc3ccc(OC(F)(F)F)c(Cl)c3)n2)c(OC)c1OC` [Compound 671], under setting [3], the pIC50 is more than 5.00.

As to `COc1ccc(Nc2ncc(F)c(Nc3ccc4c(c3)NC(=O)C(C)(C)O4)n2)c(OC)c1OC` [Compound 672], the pIC50 under setting [3] was more than 5.00.

Regarding `COc1cc(Nc2ncc(F)c(Nc3ccc4c(n3)NC(=O)C(C)(C)O4)n2)cc(OC)c1OC.O=S(=O)(O)c1ccc(O)cc1` [Compound 676, N4-(2,2-Dimethyl-3-oxo-4H-5-pyrid[1,4]oxazin-6-yl)-5-fluoro-N2-(3,4,5-trimethoxyphenyl)-2,4-pyrimidinediamine 4-Hydroxybenzenesulfonic Acid Salt], the pIC50 was more than 5.00 under setting [4] and more than 5.00 under setting [5].

Turning to `COc1cc(Nc2ncc(F)c(Nc3ccc4c(n3)NC(=O)C(C)(C)O4)n2)cc(OC)c1OC.O=S(=O)(O)c1cccnc1` [Compound 678, N4-(2,2-Dimethyl-3-oxo-4H-5-pyrid[1,4]oxazin-6-yl)-5-fluoro-N2-(3,4,5-trimethoxyphenyl)-2,4-pyrimidinediamine 0.5 Pyridine-3-sulfonic Acid Salt], the pIC50 under setting [4] is more than 5.00 and the pIC50 under setting [5] is more than 5.00.

For the compound `CCc1ccc(S(=O)(=O)O)cc1.COc1cc(Nc2ncc(F)c(Nc3ccc4c(n3)NC(=O)C(C)(C)O4)n2)cc(OC)c1OC` [Compound 679, N4-(2,2-Dimethyl-3-oxo-4H-5-pyrid[1,4]oxazin-6-yl)-5-fluoro-N2-(3,4,5-trimethoxyphenyl)-2,4-pyrimidinediamine p-Ethylbenzenesulfonic Acid Salt], the pIC50 is more than 5.00 under setting [4] and more than 5.00 under setting [5].

Consider `CNC(=O)Cn1ccc2cc(Nc3ncc(F)c(Nc4ccc5c(n4)NC(=O)C(C)(C)O5)n3)ccc21` [Compound 683, N4-(2,2-Dimethyl-3-oxo-4H-5-pyrid[1,4]oxazin-6-yl)-5-fluoro-N2-[1-(N-methylamino)carbonylmethyleneindol-5-yl]-2,4-pyrimidinediamine], for which the pIC50 was more than 5.00 under setting [4] and more than 5.00 under setting [5].

For the compound `Cc1cc(Nc2ncc(F)c(Nc3ccc4c(n3)NC(=O)C(C)(C)O4)n2)cc(C)c1Cl` [Compound 684, N2-(4-Chloro-3,5-dimethylphenyl)-N4-(2,2-dimethyl-3-oxo-4H-5-pyrid[1,4]oxazin-6-yl)-5-fluoro-2,4-pyrimidinediamine p-Toluenesulfonic Acid Salt], the pIC50 under setting [4] was more than 5.00.

Regarding `CC1(C)Oc2ccc(Nc3nc(Nc4cc(Cl)c(O)c(Cl)c4)ncc3F)nc2NC1=O` [Compound 686, N4-(2,2-Dimethyl-3-oxo-4H-5-pyrid[1,4]oxazin-6-yl)-N2-(3,5-dichloro-4-hydroxyphenyl)-5-fluoro-2,4-pyrimidinediamine], the pIC50 runs as follows: under setting [4], more than 5.00; under setting [5], more than 5.00.

Consider `CN1C(=O)C(C)(C)Oc2ccc(Nc3ncc(F)c(Nc4ccc5c(n4)N(C)C(=O)C(C)(C)O5)n3)nc21` [Compound 687, N2,N4-Bis (3-oxo-2,2,4-trimethyl-5-pyrid[1,4]oxazin-6-yl)-5-fluoro-2,4-pyrimidinediamine], for which, under setting [4], the pIC50 was more than 5.00.

Turning to `COC(=O)CN1C(=O)C(C)(C)Oc2ccc(Nc3ccnc(Nc4ccc5c(n4)N(CC(=O)OC)C(=O)C(C)(C)O5)n3)nc21` [Compound 688, N2,N4-Bis (2,2-dimethyl-4-carbomethoxymethyl-3-oxo-5-pyrid[1,4]oxazin-6-yl)-2,4-pyrimidinediamine], the pIC50 under setting [4] is less than 5.00.

`COc1cc(Nc2ncc(F)c(Nc3ccc4c(n3)N(C)C(=O)C(C)(C)O4)n2)cc(OC)c1OC` [Compound 689, 5-Fluoro-N4-(3-oxo-2,2,4-trimethyl-5-pyrid[1,4]oxazin-6-yl)-N2-(3,4,5-trimethoxyphenyl)-2,4-pyrimidinediamine]: the pIC50 under setting [5] is more than 5.00.

In the case of `COC(=O)CN1C(=O)C(C)(C)Oc2ccc(Nc3nc(Nc4cc(OC)c(OC)c(OC)c4)ncc3F)nc21` [Compound 690, N4-(2,2-Dimethyl-4-carbomethoxymethyl-3-oxo-5-pyrid[1,4]oxazin-6-yl)-5-fluoro-N2-(3,4,5-trimethoxyphenyl)-2,4-pyrimidinediamine], under setting [5], the pIC50 is more than 5.00.

Consider `COC(=O)CN1C(=O)C(C)(C)Oc2ccc(N(CC(=O)OC)c3nc(Nc4cc(OC)c(OC)c(OC)c4)ncc3F)nc21` [Compound 691, N4-(2,2-Dimethyl-4-carbomethoxymethyl-3-oxo-5-pyrid[1,4]oxazin-6-yl)-5-fluoro-N4-carbomethoxymethyl-N2-(3,4,5-trimethoxyphenyl)-2,4-pyrimidinediamine], for which the pIC50 under setting [4] is more than 5.00.

`COc1cc(Nc2ncc(F)c(Nc3ccc4c(n3)NC(=O)C(C)(C)O4)n2)cc(OC)c1OCCN1CCOCC1` [Compound 692, N2-[3,5-Dimethoxy-4-(2-(N-morpholino)ethyloxo)phenyl]-N4-(2,2-dimethyl-3-oxo-4H-5-pyrid[1,4]oxazin-6-yl)-5-fluoro-2,4-pyrimidinediamine]: the pIC50 was more than 5.00 under setting [4] and more than 5.00 under setting [5].

For the compound `CC1(C)Oc2ccc(Nc3ncc(F)c(Nc4ccc5c(n4)NC(=O)C(C)(C)O5)n3)nc2NC1=O` [Compound 693, N2, N4-Bis (2,2-dimethyl-3-oxo-4H-5-pyrid[1,4]oxazin-6-yl)-5-fluoro-2,4-pyrimidinediamine], under setting [4], the pIC50 is more than 5.00.
